Publication PMC10175918 (Communications Biology, 2023)
Read-outs that look alike come from different tables or passages of the source.

How the values were obtained:
Experiment in all cases: TGFα-shedding assay-based GPCR screening with chimeric Gα subunit proteins
Type in all cases: cell-based
348 GPCRs [1] = molecular target: T1, 348 GPCRs (Homo sapiens, UniProt P32241)
T1 construct: expressed in transfected cells; host or cells: HEK293A
T1 sequence (P32241 31-457): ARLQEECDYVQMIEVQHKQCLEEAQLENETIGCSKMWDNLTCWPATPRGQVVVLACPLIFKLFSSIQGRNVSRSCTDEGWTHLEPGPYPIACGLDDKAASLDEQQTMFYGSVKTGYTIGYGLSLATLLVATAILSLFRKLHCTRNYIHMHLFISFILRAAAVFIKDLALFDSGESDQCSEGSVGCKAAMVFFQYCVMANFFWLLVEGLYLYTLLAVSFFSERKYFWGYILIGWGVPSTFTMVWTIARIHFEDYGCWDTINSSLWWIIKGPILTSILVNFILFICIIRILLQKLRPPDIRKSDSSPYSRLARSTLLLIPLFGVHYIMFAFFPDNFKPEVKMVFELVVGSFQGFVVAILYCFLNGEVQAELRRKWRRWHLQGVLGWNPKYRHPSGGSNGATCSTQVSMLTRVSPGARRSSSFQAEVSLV

348 GPCRs [2] = molecular target: T2, 348 GPCRs (Homo sapiens, UniProt Q5T6X5); settings: 10µM, Favipiravir 100μM
T2 construct: expressed in transfected cells; host or cells: HEK293A
T2 sequence (Q5T6X5 19-926): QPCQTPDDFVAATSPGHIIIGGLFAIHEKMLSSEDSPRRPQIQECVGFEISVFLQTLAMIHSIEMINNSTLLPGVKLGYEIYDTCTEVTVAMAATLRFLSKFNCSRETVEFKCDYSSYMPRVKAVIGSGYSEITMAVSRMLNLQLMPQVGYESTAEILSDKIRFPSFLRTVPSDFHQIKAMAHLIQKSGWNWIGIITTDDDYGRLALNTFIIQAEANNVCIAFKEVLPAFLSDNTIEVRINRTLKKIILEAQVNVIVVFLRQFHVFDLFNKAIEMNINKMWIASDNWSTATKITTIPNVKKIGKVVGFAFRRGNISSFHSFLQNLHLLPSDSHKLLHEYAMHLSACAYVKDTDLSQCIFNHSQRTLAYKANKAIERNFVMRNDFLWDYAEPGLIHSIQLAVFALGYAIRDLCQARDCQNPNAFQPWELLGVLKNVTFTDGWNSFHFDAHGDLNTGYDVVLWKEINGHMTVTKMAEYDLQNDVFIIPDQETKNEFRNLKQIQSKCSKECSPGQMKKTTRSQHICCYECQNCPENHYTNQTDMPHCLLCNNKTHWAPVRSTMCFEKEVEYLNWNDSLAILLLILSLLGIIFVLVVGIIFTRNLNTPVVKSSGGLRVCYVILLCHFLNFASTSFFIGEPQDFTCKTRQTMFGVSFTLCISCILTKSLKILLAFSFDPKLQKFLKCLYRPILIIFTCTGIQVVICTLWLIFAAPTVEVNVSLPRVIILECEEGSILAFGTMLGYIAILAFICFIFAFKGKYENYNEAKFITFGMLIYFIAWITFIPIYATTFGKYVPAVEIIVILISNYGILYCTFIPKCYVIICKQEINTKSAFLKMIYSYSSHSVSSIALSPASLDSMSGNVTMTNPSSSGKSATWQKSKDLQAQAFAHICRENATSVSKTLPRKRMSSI

348 GPCRs [3] = molecular target: T3, 348 GPCRs (Homo sapiens, UniProt P21730); settings: 10µM, Favipiravir 100μM
T3 construct: expressed in transfected cells; host or cells: HEK293A
T3 sequence (P21730 1-350): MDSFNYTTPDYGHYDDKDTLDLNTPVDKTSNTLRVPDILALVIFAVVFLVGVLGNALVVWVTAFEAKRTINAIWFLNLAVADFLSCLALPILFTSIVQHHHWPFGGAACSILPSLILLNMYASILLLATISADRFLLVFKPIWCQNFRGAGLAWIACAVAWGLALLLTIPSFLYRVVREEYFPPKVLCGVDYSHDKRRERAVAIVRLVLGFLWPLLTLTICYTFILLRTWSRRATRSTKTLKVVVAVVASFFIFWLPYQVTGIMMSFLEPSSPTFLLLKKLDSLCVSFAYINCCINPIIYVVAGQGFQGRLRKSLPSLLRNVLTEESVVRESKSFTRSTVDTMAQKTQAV

348 GPCRs [4] = molecular target: T4, 348 GPCRs (Homo sapiens, UniProt O15552); settings: 10µM, Favipiravir 100μM
T4 construct: expressed in transfected cells; host or cells: HEK293A
T4 sequence (O15552 1-330): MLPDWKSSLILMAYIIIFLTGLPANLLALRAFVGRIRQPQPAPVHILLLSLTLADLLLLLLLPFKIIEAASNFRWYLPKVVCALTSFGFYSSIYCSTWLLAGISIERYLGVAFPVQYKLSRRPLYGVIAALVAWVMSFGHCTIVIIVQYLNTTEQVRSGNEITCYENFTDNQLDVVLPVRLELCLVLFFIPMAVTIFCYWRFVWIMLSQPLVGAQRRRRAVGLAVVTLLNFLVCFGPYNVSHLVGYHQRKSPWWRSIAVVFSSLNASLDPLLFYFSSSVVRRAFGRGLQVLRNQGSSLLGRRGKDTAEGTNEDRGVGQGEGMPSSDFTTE

348 GPCRs [5] = molecular target: T5, 348 GPCRs (Homo sapiens, UniProt Q8TDS5); settings: 10µM, Favipiravir 100μM
T5 construct: expressed in transfected cells; host or cells: HEK293A

348 GPCRs [6] = molecular target: T6, 348 GPCRs (Homo sapiens, UniProt Q96P65); settings: 10µM, Favipiravir 100μM
T6 construct: expressed in transfected cells; host or cells: HEK293A
T6 sequence (Q96P65 1-431): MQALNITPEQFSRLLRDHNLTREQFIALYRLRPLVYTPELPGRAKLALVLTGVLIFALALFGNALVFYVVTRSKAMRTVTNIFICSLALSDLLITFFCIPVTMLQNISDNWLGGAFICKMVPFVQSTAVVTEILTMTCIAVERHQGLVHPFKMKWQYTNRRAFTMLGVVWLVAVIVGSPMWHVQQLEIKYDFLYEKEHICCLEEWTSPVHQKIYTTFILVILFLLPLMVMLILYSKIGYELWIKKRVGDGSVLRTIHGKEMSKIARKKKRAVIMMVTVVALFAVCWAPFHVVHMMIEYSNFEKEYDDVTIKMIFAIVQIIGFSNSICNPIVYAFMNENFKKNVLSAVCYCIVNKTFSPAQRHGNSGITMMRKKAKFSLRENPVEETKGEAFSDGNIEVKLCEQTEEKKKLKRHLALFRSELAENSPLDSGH

[7] = read-out: % GPCR activation compared to TPA, GPCR VIPR1 (vasoactive intestinal peptide receptor 1)
[8] = read-out: % GPCR activation compared to TPA, GPRC6A (G protein-coupled receptor, family C, group 6, member A)
[9] = read-out: % GPCR activation compared to TPA, C5AR1 (complement C5a receptor 1)
[10] = read-out: % GPCR activation compared to TPA, FFA2 (free fatty acid receptor 2)
[11] = read-out: % GPCR activation compared to TPA, OXER1 (oxoeicosanoid receptor 1)
[12] = read-out: % GPCR activation compared to TPA, QRFP (pyroglutamylated RFamide peptide receptor)
[13] = GPCR VIPR1 (vasoactive intestinal peptide receptor 1), read-out: % GPCR activation compared to TPA
[14] = GPRC6A (G protein-coupled receptor, family C, group 6, member A), read-out: % GPCR activation compared to TPA
[15] = C5AR1 (complement C5a receptor 1), read-out: % GPCR activation compared to TPA
[16] = FFA2 (free fatty acid receptor 2), read-out: % GPCR activation compared to TPA
[17] = OXER1 (oxoeicosanoid receptor 1), read-out: % GPCR activation compared to TPA
[18] = QRFP (pyroglutamylated RFamide peptide receptor), read-out: % GPCR activation compared to TPA

T5 sequence (Q8TDS5 whole entry): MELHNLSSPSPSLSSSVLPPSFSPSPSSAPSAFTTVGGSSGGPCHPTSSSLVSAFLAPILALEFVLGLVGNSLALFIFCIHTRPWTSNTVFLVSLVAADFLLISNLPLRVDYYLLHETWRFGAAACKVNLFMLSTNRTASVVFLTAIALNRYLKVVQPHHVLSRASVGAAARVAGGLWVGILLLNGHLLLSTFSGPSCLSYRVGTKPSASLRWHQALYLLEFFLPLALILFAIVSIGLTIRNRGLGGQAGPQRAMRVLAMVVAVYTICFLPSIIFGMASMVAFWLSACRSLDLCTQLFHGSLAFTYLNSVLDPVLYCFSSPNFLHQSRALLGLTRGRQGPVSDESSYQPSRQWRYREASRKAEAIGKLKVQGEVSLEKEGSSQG

SMILES	activation at 10 µM (348 GPCRs [1]; [13]) [%]	activation at 10 µM (348 GPCRs [2]; [14]) [%]	activation at 10 µM (348 GPCRs [3]; [15]) [%]	activation at 10 µM (348 GPCRs [4]; [16]) [%]	activation at 10 µM (348 GPCRs [5]; [17]) [%]	activation at 100 µM (348 GPCRs [6]; [18]) [%]	activation at 100 µM (348 GPCRs [1]; GPCR VIPR1 (vasoactive intestinal peptide receptor 1), 100μM, read-out: % GPCR activation compared to TPA) [%]	activation at 10 µM (348 GPCRs [1]; [7]) [%]	activation at 10 µM (348 GPCRs [2]; [8]) [%]	activation at 10 µM (348 GPCRs [3]; [9]) [%]	activation at 10 µM (348 GPCRs [4]; [10]) [%]	activation at 10 µM (348 GPCRs [5]; [11]) [%]	activation at 100 µM (348 GPCRs [6]; [12]) [%]
CC(C)OC(=O)[C@H](C)N[P@](=O)(OC[C@H]1O[C@@H](n2ccc(=O)[nH]c2=O)[C@](C)(F)[C@@H]1O)Oc1ccccc1 [sofosbuvir]	–	–	–	–	–	–	–	0.0833	0.803	-2.89	0.172	-1.86	-1.05
NC(=O)c1nc(F)cnc1O [favipiravir, 6-fluoro-3-hydroxy-2-pyrazinecarboxamide]	–	-1.55	-6.83	-0.501	0.649	-2.34	-0.983	–	–	–	–	–	–
CCC(CC)COC(=O)[C@H](C)N[P@](=O)(OC[C@H]1O[C@@](C#N)(c2ccc3c(N)ncnn23)[C@H](O)[C@@H]1O)Oc1ccccc1 [remdesivir]	–	–	–	–	–	–	–	-1.85	-2.47	-1.43	-1.72	2.06	-1.33

Further lines, with some results ahead:

activation at 10 µM (348 GPCRs [1]; [13]) [%]	activation at 10 µM (348 GPCRs [2]; [14]) [%]	activation at 10 µM (348 GPCRs [3]; [15]) [%]	activation at 10 µM (348 GPCRs [4]; [16]) [%]	activation at 10 µM (348 GPCRs [5]; [17]) [%]	activation at 100 µM (348 GPCRs [6]; [18]) [%]	activation at 100 µM (348 GPCRs [1]; GPCR VIPR1 (vasoactive intestinal peptide receptor 1), 100μM, read-out: % GPCR activation compared to TPA) [%]	SMILES	activation at 10 µM (348 GPCRs [1]; [7]) [%]	activation at 10 µM (348 GPCRs [2]; [8]) [%]	activation at 10 µM (348 GPCRs [3]; [9]) [%]	activation at 10 µM (348 GPCRs [4]; [10]) [%]	activation at 10 µM (348 GPCRs [5]; [11]) [%]	activation at 100 µM (348 GPCRs [6]; [12]) [%]
-0.522	-1.51	-2.78	-4.09	-0.119	-2.8	–	CC(C)C(=O)OC[C@H]1O[C@@H](n2ccc(NO)nc2=O)[C@H](O)[C@@H]1O [molnupiravir]	–	–	–	–	–	–
-2.1	-1.11	-2.17	-2.64	-0.233	-0.975	–	N#C[C@@]1(c2ccc3c(N)ncnn23)O[C@H](CO)[C@@H](O)[C@H]1O [GS441524]	–	–	–	–	–	–
